This note sets out measurements from US20200048267A1, “OGA INHIBITOR COMPOUNDS” (Janssen Pharmaceutica NV, priority 2017, published 2020).

Structures can show the parent of a compound that is named as a salt.

Series [1] addresses T1, recombinant human Meningioma Expressed Antigen 5 (MGEA5), also referred to as O-GlcNAcase (OGA) (Homo sapiens, UniProt O60502).
T1 construct: Full length OGA enzyme was purchased at OriGene (cat # TP322411); purchased OriGene TP322411
T1 sequence (O60502 1-916): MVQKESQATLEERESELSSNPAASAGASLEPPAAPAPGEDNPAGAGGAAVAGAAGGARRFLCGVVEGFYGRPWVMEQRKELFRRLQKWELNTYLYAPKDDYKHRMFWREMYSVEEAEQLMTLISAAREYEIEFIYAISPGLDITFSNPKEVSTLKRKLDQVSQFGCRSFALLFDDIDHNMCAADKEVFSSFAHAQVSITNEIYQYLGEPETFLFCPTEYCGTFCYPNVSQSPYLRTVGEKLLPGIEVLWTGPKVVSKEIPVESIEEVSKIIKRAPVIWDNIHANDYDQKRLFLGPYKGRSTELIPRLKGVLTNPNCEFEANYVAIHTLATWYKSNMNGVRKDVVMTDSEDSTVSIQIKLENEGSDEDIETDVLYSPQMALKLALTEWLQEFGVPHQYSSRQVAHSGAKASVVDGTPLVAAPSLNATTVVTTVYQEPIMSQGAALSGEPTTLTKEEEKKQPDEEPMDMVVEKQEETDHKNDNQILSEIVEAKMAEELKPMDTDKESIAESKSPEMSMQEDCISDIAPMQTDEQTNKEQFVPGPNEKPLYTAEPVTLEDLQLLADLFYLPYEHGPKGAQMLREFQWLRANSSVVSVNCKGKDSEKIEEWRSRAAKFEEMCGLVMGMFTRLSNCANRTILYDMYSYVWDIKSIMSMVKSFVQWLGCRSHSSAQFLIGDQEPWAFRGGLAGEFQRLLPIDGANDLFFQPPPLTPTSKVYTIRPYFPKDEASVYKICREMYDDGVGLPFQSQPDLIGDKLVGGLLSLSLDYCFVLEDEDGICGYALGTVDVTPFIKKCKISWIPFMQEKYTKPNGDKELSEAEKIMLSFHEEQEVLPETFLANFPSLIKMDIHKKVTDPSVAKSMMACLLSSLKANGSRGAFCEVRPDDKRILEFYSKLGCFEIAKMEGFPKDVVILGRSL
Description: OGA biochemical assay (inhibition of FM-GlcNAc hydrolysis, fluorescence). Particulars: for Emax: read-out: ENZYMATIC Emax (%); for IC50: read-out: ENZYMATIC hOGA, pIC50 (converted). The source says:
The assay is based on the inhibition of the hydrolysis of fluorescein mono-β-D-N-Acetyl-Glucosamine (FM-GlcNAc) (Mariappa et al. 2015, Biochem J 470:255) by the recombinant human Meningioma Expressed Antigen 5 (MGEA5), also referred to as O-GlcNAcase (OGA). The hydrolysis FM-GlcNAc (Marker Gene technologies, cat # M1485) results in the formation of B-D-N-glucosamineacetate and fluorescein. The fluorescence of the latter can be measured at excitation wavelength 485 nm and emission wavelength 538 nm. An increase in enzyme activity results in an increase in fluorescence signal. Full length OGA enzyme was purchased at OriGene (cat # TP322411). The enzyme was stored in 25 mM Tris.HCl, pH 7.3, 100 mM glycine, 10% glycerol at −20° C. Thiamet G and GlcNAcStatin were tested as reference compounds (Yuzwa et al. 2008 Nature Chemical Biology 4:483; Yuzwa et al. 2012 Nature Chemical Biology 8:393). The assay was performed in 200 mM Citrate/phosphate buffer supplemented with 0.005% Tween-20. 35.6 g Na2HPO4 2 H2O (Sigma, # C0759) were dissolved in 1 L water to obtain a 200 mM solution. 19.2 g citric acid (Merck, # 1.06580) was dissolved in 1 L water to obtain a 100 mM solution. pH of the sodium phosphate solution was adjusted with the citric acid solution to 7.2. The buffer to stop the reaction consists of a 500 mM Carbonate buffer, pH 11.0. 734 mg FM-GlcNAc were dissolved in 5.48 mL DMSO to obtain a 250 mM solution and was stored at −20° C. OGA was used at 2 nM concentration and FM-GlcNAc at a 100 uM final concentration. Dilutions were prepared in assay buffer.
50 nl of a compound dissolved in DMSO was dispensed on Black Proxiplate™ 384 Plus Assay plates (Perkin Elmer, #6008269) and 3 μl fl-OGA enzyme mix added subsequently. Plates were pre-incubated for 60 min at room temperature and then 2 μl FM-GlcNAc substrate mix added. […] Plates were briefly centrifuged for 1 min at 1000rpm and incubate at room temperature for 6 h. To stop the reaction 5 μl STOP buffer were added and plates centrifuge again 1 min at 1000 rpm.
Fluorescence was quantified in the Thermo Scientific Fluoroskan Ascent or the PerkinElmer EnVision with excitation wavelength 485 nm and emission wavelength 538 nm.
For analysis a best-fit curve is fitted by a minimum sum of squares method. From this an IC50 value and Hill coefficient was obtained. High control (no inhibitor) and low control (saturating concentrations of standard inhibitor) were used to define the minimum and maximum values.

In a further series the target is T2, OGA (Homo sapiens, UniProt O60502).
T2 construct: HEK293 cells inducible for P301L mutant human Tau (isoform 2N4R) were established at Janssen; endogenous in cells; host or cells: HEK293 cells inducible for P301L mutant human Tau (2N4R)
T2 sequence (O60502 1-916): T1 sequence (O60502 1-916)
Description: OGA cellular assay (ICC detection of O-GlcNAcylated proteins in HEK293 cells inducible for P301L mutant human Tau). It counts as cell-based. Particulars: 6 hours incubation; for EC50: read-out: CELLULAR hOGA, pEC50 (converted). The procedure: HEK293 cells inducible for P301L mutant human Tau (isoform 2N4R) were established at Janssen. Thiamet-G was used for both plate validation (high control) and as reference compound (reference EC50 assay validation). OGA inhibition is evaluated through the immunocytochemical (ICC) detection of O-GlcNAcylated proteins by the use of a monoclonal antibody (CTD110.6; Cell Signaling, #9875) detecting O-GlcNAcylated residues as previously described (Dorfmueller et al. 2010 Chemistry & biology, 17:1250). Inhibition of OGA will result in an increase of O-GlcNAcylated protein levels resulting in an increased signal in the experiment. Cell nuclei are stained with Hoechst to give a cell culture quality control and a rough estimate of immediate compounds toxicity, if any. ICC pictures are imaged with a Perkin Elmer Opera Phenix plate microscope and quantified with the provided software Perkin Elmer Harmony 4.1.
Cells were propagated in DMEM high Glucose (Sigma, #D5796) following standard procedures. 2 days before the cell assay cells are split, counted and seeded in Poly-D-Lysine (PDL) coated 96-wells (Greiner, #655946) plate at a cell density of 12,000 cells per cm^2 (4,000 cells per well) in 100 µl of Assay Medium (Low Glucose medium is used to reduce basal levels of GlcNAcylation) (Park et al. 2014 The Journal of biological chemistry 289:13519). At the day of compound test medium from assay plates was removed and replenished with 90 μl of fresh Assay Medium. 10 μl of compounds at a 10 fold final concentration were added to the wells. Plates were centrifuged shortly before incubation in the cell incubator for 6 hours. DMSO concentration was set to 0.2%. Medium is discarded by applying vacuum. For staining of cells medium was removed and cells washed once with 100 μl D-PBS (Sigma, #D8537). From next step onwards unless other stated assay volume was always 50 μl and incubation was performed without agitation and at room temperature. Cells were fixed in 50 μl of a 4% paraformaldehyde (PFA, Alpha aesar, # 043368) PBS solution for 15 minutes at room temperature. […] Before analysis samples were washed 2 times manually for 5 minutes in ICC base buffer.
Imaging is performed using Perkin Elmer Phenix Opera using a water 20× objective and recording 9 fields per well. Intensity readout at 488 nm is used as a measure of O-GlcNAcylation level of total proteins in wells. To assess potential toxicity of compounds nuclei were counted using the Hoechst staining. IC50-values are calculated using parametric non-linear regression model fitting. As a maximum inhibition Thiamet G at a 200 uM concentration is present on each plate. In addition, a concentration response of Thiamet G is calculated on each plate.

A word on the Emax: it is the size of the effect at its maximum, as opposed to the concentration needed. For orientation: melting point means the temperature of the solid-liquid transition. The compound `CC(=O)Nc1ncc(CN2CC3(CCN(c4cc(C)nc(C)c4)C3)C2)s1` [Product 25] yielded a melting point of 214.1 °C. Also, in series [1], the Emax turned out to be 57.9% and the IC50 was 8.71 µM.
In the case of `Cc1cc(N2CCC3(CCN(C(C)c4ccc5nccnc5c4)C3)C2)nc(C)n1.Cl` (centres unmarked) [Product 20], the melting point turned out to be 173.1 °C. In addition, in series [1], the Emax turned out to be 97.6% and the IC50 was 0.117 µM. Moreover, at OGA, the Emax came out at 14.9% and the EC50 is greater than 1000 µM.
In turn, `Cc1cc(N2CCC3(CCN(C(C)c4cc5ccccc5n4C)C3)C2)nc(C)n1.Cl` (centres unmarked) [Product 27] showed a melting point of 166.4 °C. Moreover, in series [1], the “ENZYMATIC hOGA; pIC50” value is listed as 5.58 and the maximum response (Emax) is 79.4%.
For `Cc1cc(N2CCC3(CCN(C(C)c4ccc5scnc5c4)C3)C2)nc(C)n1.Cl` (centres unmarked) [Product 24], the melting point was 218.2 °C. Also, in series [1], the maximal effect (Emax) was 99.3% and the IC50 is 0.049 µM. Also, on OGA, the maximal effect (Emax) stood at 38% and the EC50 was greater than 1 µM.
With `CNc1cncc(N2CCC3(CCN(Cc4cnc(NC(C)=O)s4)C3)C2)n1` (centres unmarked) [Product 26], in series [1], the Emax came out at 101% and the IC50 was 0.0617 µM. Besides, on OGA, the Emax came out at 25.1% and the EC50 is greater than 1 µM.
As for `Cc1cc(N2CCC3(CCN(C(C)c4ccc5sc(C)nc5c4)C3)C2)cc(C)n1` (centres unmarked) [Product 29], in series [1], the Emax stood at 101% and the IC50 is 0.0182 µM. Moreover, at OGA, the Emax amounted to 74.1% and the EC50 is 0.38 µM.
For the compound `CC(=O)Nc1ncc(CN2CCC3(CCN(c4ccnc(C(F)(F)F)c4)C3)C2)s1` (centres unmarked) [Product 65], in series [1], the Emax was 101% and the IC50 is 0.0263 µM. Also, on OGA, the Emax is 56.8% and the EC50 is 0.724 µM.
Consider `CCc1cncc(N2CCC3(CCN(Cc4cnc(NC(C)=O)s4)C3)C2)n1` (centres unmarked) [Product 19], for which, in series [1], the maximal effect (Emax) was determined as 102% and the IC50 is 0.117 µM. Besides, at OGA, the Emax turned out to be 56.4% and the EC50 is 0.871 µM.
For `CC(=O)Nc1ncc(CN2CCC3(CCN(c4cnc(C)c(C)c4)C3)C2)s1` (centres unmarked) [Product 51], in that order: 100%, 0.00851 µM, 93% and 0.123 µM.
As to `Cc1cc(N2CCC3(CCN(C(C)c4cnc5c(c4)OCCO5)C3)C2)cc(C)n1` (centres unmarked) [Product 37], in series [1], the maximal effect (Emax) is 99% and the IC50 is 0.182 µM. On OGA, the maximum response (Emax) was determined as 20.4% and the EC50 is greater than 1 µM.
With `CC(=O)Nc1ncc(CN2CCC3(CCN(c4cc(C)nc(C)n4)C3)C2)s1` (centres unmarked) [Product 9], in series [1], the “ENZYMATIC hOGA; pIC50” value worked out at 7.88 and the Emax turned out to be 101%. On OGA, the maximal response (Emax) worked out at 85.4% and the EC50 was 0.17 µM.
`Cc1cc(N2CCC3(CCN(Cc4ccc5sc(C)nc5c4)C3)C2)nc(C)n1` (centres unmarked) (as salt: HCl) [Product 32] gave a melting point of 214.8 °C.
For `Cc1cc(N2CCC3(CCN(C(C)c4ccc5nccnc5c4)C3)C2)cc(C)n1` (single isomer, unassigned) [Product 7], in series [1], the maximal response (Emax) was 98.6% and the IC50 is 0.0724 µM. At OGA, the maximal response (Emax) came out at 62.9% and the EC50 was 3.8 µM.
For `CC(=O)Nc1ncc(CN2CCC3(CCN(c4ncc(C)cc4C)C3)C2)s1` (centres unmarked) [Product 49], in series [1], the “ENZYMATIC hOGA; pIC50” value was 8.41 and the maximum response (Emax) came out at 99.6%. In addition, on OGA, the Emax is 88.8% and the EC50 is 0.0457 µM.
On to `Cc1cc(N2CCC3(CCN(Cc4ccc5nccnc5c4)C3)C2)nc(C)n1` (centres unmarked) [Product 22], for which, in series [1], the maximal response (Emax) came out at 96% and the IC50 was 0.275 µM. Besides, on OGA, the Emax was 12% and the EC50 is greater than 1 µM.
With `CC(=O)Nc1ncc(CN2CCC3(CCN(c4cncc(C5CC5)n4)C3)C2)s1` (centres unmarked) [Product 13], in series [1], the “ENZYMATIC hOGA; pIC50” value was 7.69 and the Emax is 100%. Moreover, the Emax on OGA was 92.3%.
In the case of `CC(=O)Nc1ncc(CN2CCC3(C2)CN(c2cc(C)nc(C)c2)C3)s1` [Product 23], the melting point was found to be 212.2 °C. Also, in series [1], the maximum response (Emax) amounted to 100% and the IC50 was 0.302 µM.
`Cc1cc(N2CCC3(CCN(Cc4nc5ccccc5[nH]4)C3)C2)nc(C)n1` (centres unmarked) [Product 30]: in series [1], the maximal effect (Emax) was determined as 100% and the IC50 was 0.324 µM. Moreover, at OGA, the Emax is 7.7% and the EC50 is greater than 1 µM.
For `COc1cc(N2CCC3(CCN(Cc4cnc(NC(C)=O)s4)C3)C2)ccn1` (centres unmarked) [Product 63], in that order: 102%, 0.00692 µM, 75.1% and 0.219 µM.
